The text below walks through data of paper PMC10384657 (Virus Research, 2023).

SMILES strings stand for the structures. Some results are limits rather than exact numbers.

For data set [1], the system named is MPER25c peptide (S2 membrane proximal region derived). It counts as binding, SARS-CoV-2.
The test system of the next data set is Vero E6 cells. To be noted: 72 h.
The subject of the next data set is Vero E6/TMPRSS2. Conditions: 72 h.

As for `CC[C@H](C)[C@H](NC(=O)[C@H](CCC(N)=O)NC(=O)[C@H](CC(C)C)NC(=O)[C@H](C)NC(=O)[C@H](C)NC(=O)CNC(=O)[C@H](C)NC(=O)CNC(=O)[C@H](Cc1ccccc1)NC(C)=O)C(=O)N1CCC[C@H]1C(=O)N[C@@H](Cc1ccccc1)C(=O)N[C@@H](C)C(=O)N[C@@H](CCSC)C(=O)N[C@@H](CCC(N)=O)C(=O)N[C@@H](CCSC)C(=O)N[C@@H](C)C(=O)N[C@@H](C)C(=O)N[C@@H](CCCNC(=N)N)C(=O)N[C@@H](Cc1ccccc1)C(N)=O` [PN19Y→A904], in data set [1], the “fold lower binding activity to immobilized MPER25c than PN19” value was 2-3 fold. Further, in the data set on Vero E6 cells, the “CC50 (mean ± SD)” value is above 100 µM.
As to `CC[C@H](C)[C@H](NC(=O)[C@H](CCC(N)=O)NC(=O)[C@H](CC(C)C)NC(=O)[C@H](C)NC(=O)[C@H](C)NC(=O)CNC(=O)[C@H](C)NC(=O)CNC(=O)[C@H](Cc1ccccc1)NC(C)=O)C(=O)N1CCC[C@H]1C(=O)N[C@@H](Cc1ccccc1)C(=O)N[C@@H](C)C(=O)N[C@@H](CCSC)C(=O)N[C@@H](CCC(N)=O)C(=O)N[C@@H](CCSC)C(=O)N[C@@H](C)C(=O)N[C@@H](Cc1ccc(O)cc1)C(=O)N[C@@H](CCCNC(=N)N)C(=O)N[C@@H](Cc1ccccc1)C(N)=O` [PN19], in data set [1], the “binding to immobilized MPER25c (in words)” value is reported as “binds to immobilized MPER25c” and the ka was found to be 410.9 M⁻¹ s⁻¹. In addition, the “CC50 (mean ± SD)” value in the data set with Vero E6 cells is above 100 µM. Further, the “CC50 (mean ± SD)” value with Vero E6/TMPRSS2 is above 100 µM. Besides, the “fold reduction of the expected IC50 value of PN19 produced by MPER25” value with SARS-CoV-2 is recorded as 48 fold.
